Assay results taken from US7838659B2, “Herpesvirus ribozymes and vectors” (priority 2003, dated 2010).

What was measured:
Type in all cases: cell-based
[1] = test system: HSV-1 17syn+ (drug sensitive); assay: Multi-step replication, comparison with acyclovir, strain 17syn+; conditions: MOI 10^−3, 48 hours, rabbit skin cells
Procedure: (§1) Four groups were included when testing the impact of the ribozyme on replication of drug resistant HSV-1 strains: mock infection and Ad-UL20 Rz treatments were performed as before; an adenovirus expressing GFP was used instead of ψ5; and an acyclovir (ACV) treatment (0.1 μM) was included. The dosage of acyclovir was determined by the threshold dose needed to distinguish drug resistance of HSV-1 (Thi, T. N., C. Deback, I. Malet, P. Bonnafous, Z. Ait-Arkoub, and H. Agut. 2006. Rapid determination of antiviral drug susceptibility of herpes simplex virus types 1 and 2 by real-time PCR. Antiviral Res 69:152-7). Forty-eight hours were allowed for HSV-1 infection to develop before cell lysates were harvested for titration. Five HSV-1 strains were tested: 17syn+ and KOS are drug sensitive strains, and PAAr5, tkLTRZ1, and ACG^r4 are drug resistant isolates.
(§2) UL20-Rz154 inhibits viral replication of HSV-1 drug resistant strains. Ad-UL20 Rz154 was compared with acyclovir treatment in a multi-step infection at an MOI of 10^−3. […] In the case of PAAr5 infection, UL20 ribozyme reduced viral production by 99%; against tkLTRZ1 infection, it reduced virus yield by 76%; and against ACGr4 by 70%. Therefore, knocking down the expression of the UL20 gene led to a significant inhibition of HSV-1 viral replication in viral strains that were resistant to a conventional antiviral drug.

[2] = test system: HSV-1 KOS (drug sensitive); assay: Multi-step replication, comparison with acyclovir, strain KOS; conditions: MOI 10^−3, 48 hours, rabbit skin cells
Procedure: as §1, §2

[3] = test system: HSV-1 PAAr5 (drug resistant); assay: Multi-step replication, comparison with acyclovir, strain PAAr5; conditions: strain PAAr5, MOI 10^−3, 48 hours, rabbit skin cells
Procedure: as §1, §2

[4] = test system: HSV-1 tkLTRZ1 (drug resistant); assay: Multi-step replication, comparison with acyclovir, strain tkLTRZ1; conditions: strain tkLTRZ1, MOI 10^−3, 48 hours, rabbit skin cells
Procedure: as §1, §2

[5] = test system: HSV-1 ACGr4 (drug resistant); assay: Multi-step replication, comparison with acyclovir, strain ACGr4; conditions: strain ACGr4, MOI 10^−3, 48 hours, rabbit skin cells
Procedure: as §1, §2

What does the source list for `Nc1nc2c(ncn2COCCO)c(=O)[nH]1` [acyclovir]?
inhibition of HSV-1 viral production [1]: 99%; inhibition of HSV-1 viral production [2]: 80%; reduction of viral production [3]: no significant difference in HSV yields; reduction of virus yield [4]: no significant difference in HSV yields; reduction of virus yield [5]: no significant difference in HSV yields
